From US8076449B2, “Therapeutic agents of colivelin for neurodegenerative diseases” (Tomohiro Chiba, priority 2004, dated 2011)
Ends that are not written are not given here.

Assays:
[1] = test system: F11 cells transformed with M146L-PS1; settings: as already reported; cited from earlier work
[2] = test system: CD-1 mice icv-administered with Aβ (25-35); assay: Y-maze spatial working memory impairment induced by Aβ (25-35), icv administration; type: in vivo, mouse; settings: 1 nmol colivelin icv, 10 nmol Aβ (25-35) icv, 3 weeks after Aβ
Method: The icv administration of Aβ peptides has been reported to induce spatial working memory impairment. […] In this test, the in vivo neuroprotective effect of colivelin on Aβ toxicity was examined.
Male CD-1 mice at 3 months of age were icy-administered once every three weeks with 1 nmol colivelin together with 3 μl of saline or 3 μl of saline alone into the left lateral ventricles. After 1 hour from the first administration of colivelin, 5 μl of saline together with 10 nmol Aβ (25-35) or 5 μl of saline alone was administered to the right lateral ventricles. After 3 weeks from the Aβ peptide administration, each mouse was examined for spatial working memory in a Y-maze. The Y-maze was made of three gray plastic arms (40 cm long, 12 cm high, 3 cm wide at the bottom, and 10 cm wide at the top) connected to each other at angles of 120°. The mice were individually placed at the end of one arm of the Y-maze and allowed to freely explore the arms for 8 minutes. Items examined were (1) frequency of entry into each arm, (2) total arm entry times, (3) spontaneous alternation percentage, and (4) events. The spontaneous alternation percentage was defined as a ratio of the arm choices that differed from the previous two choices (“successful choices”) to total choices during the run (“total entry minus two”, because the first two choices could not be evaluated for success or failure during the run). […]

[3] = test system: ChAT(+) neurons in the ventral gray column of ALS model mice; assay: Immunohistochemical count of ChAT(+) neurons in spinal cord sections from dead ALS model mice; type: in vivo, mouse; settings: spinal cord (L1-3) sections from dead mice
Method: Spinal cord (L1-3) sections from wild-type (n=3, FIG. 9a), control (saline-treated) (n=5, FIG. 9b), ADNF-treated (n=3, FIG. 9c), AGA-C8R-HNG17-treated (n=14, FIG. 9d), or colivelin-treated (n=12, FIG. 9e) mice were immunostained with an anti-ChAT antibody to count ChAT(+) neurons in the ventral gray columns of the spinal cords. The sections were prepared from dead mice. The average number of ChAT(+) neurons per section was compared among the mice (FIG. 9f). Statistical analysis was conducted by one-way ANOVA, followed by Fischer's PLSD test (**p<0.01); and
The immunohistochemical analysis of neuroprotective effect was conducted using ALS model mice (n=12, FIG. 9e) administered with colivelin, in comparison to wild type (n=3, FIG. 9a), control (saline-treated) (n=5, FIG. 9b), A DNF-treated (n=3, FIG. 9c), and AGA-C8R-HNG17-treated (n=14, FIG. 9d) mice. Spinal cord (L1-3) sections from dead mice in each group were immunostained with an anti-ChAT antibody to count ChAT(+) neurons in the ventral gray column (FIG. 9f).

[4] = test system: ChAT(+) neurons in the ventral gray column of ALS model mice; assay: Immunohistochemical count of ChAT(+) neurons in spinal cord sections from 120-day-old ALS model mice; type: in vivo, mouse; settings: spinal cord (L1-3) sections from 120-day-old mice
Method: Spinal cord (L1-3) sections from wild-type (n=3, FIG. 10A), control (saline-treated) (n=5, FIG. 10B), ADNF-treated (n=3, FIG. 10C), or colivelin-treated (n=12, FIG. 10D) mice were immunostained with an anti-ChAT antibody to count ChAT(+) neurons in the ventral gray column. The sections were prepared from 120-day-old mice (see FIG. 8d). The average number of ChAT(+) neurons per section was compared among the mice (FIG. 10E). Statistical analysis was conducted by one-way ANOVA, followed by Fischer's PLSD test (**p<0.01; *p<0.05).
The immunohistochemical analysis of neuroprotective effect was conducted using ALS model mice (n=12, FIG. 10D) administered with colivelin, in comparison to wild type (n=3, FIG. 10A), control (saline-treated) (n=5, FIG. 10B), and ADNF-treated (n=3, FIG. 10C) mice. Spinal cord (L1-3) sections from the mice in each group were immunostained with an anti-ChAT antibody to count ChAT(+) neurons in the ventral gray column (FIG. 9f). The sections were prepared from 120-day-old mice with motor function increased by colivelin and ADNF (see FIG. 8d)

Sequence | suppression of cell death caused by M146L-PS1 [1] | spontaneous alternation percentage (SA %) in Y-maze [2] [%] | number of ChAT(+) neurons per section in the spinal cord [3] | number of ChAT(+) neurons per section in the spinal cord [4]
SALLRSIPA [ADNF, reference compound] | does not suppress |  |  | 
SALLRSIPAPAGASRLLLLTGEIDLP [colivelin] |  | 70 | approximately 19 | approximately 32
